In EP4122467A1, “THX-B FOR TREATING AND PREVENTING CANCER AND METASTASIS” (Fundación del Sector Público Estatal Centro Nacional de …, priority 2021, dated 2023):
“Also recorded” adds a separate entry of the source.

What was measured:
[1] = Persistence in systemic circulation in vivo; conditions: read-out: estimated systemic circulation half-life in vivo
Excerpt: In both the proNGF mAb and the THX-B treatments, the prolonged anatomical physiological effects on the bladder are likely to be due to a prolonged therapeutic effect rather than to the drugs remaining in circulation at therapeutic levels after a 3 week period, given that we have observed that anti-proNGF mAb is detectable in systemic circulation only for 2 weeks in previous studies.
(§1) Animal housing and treatments All experiments received the ethical approval from the Lady Davis Institute Ethics Board (No. 7859), Montreal, Canada. Housing and handling conformed with the Canadian Council for Animal Care (CCAC). One hundred and forty four 9-week-old C57BL/6 female mice were kept on a 12 h light/dark cycle with free access to food (standard Purina chow, Teklad Global, Wl, USA) and water. Diabetes was induced by i.p. injection of streptozotocin (60 mg/kg in citrate buffer, 10 mmol/l, pH 4.5 on 5 consecutive days) after 4-5 h fasting. Fasting serum glucose (FSG) was checked after 5-7 days using a glucometer (Contour next EZ, Bayer, ON, Canada) from the tail. FSG above 14 mmol/l was considered diabetic. […]

[2] = Drug levels and tissue distribution after intraperitoneal and oral administration; assay type: in vivo, mice
Procedure: In lymph nodes compound was detected at 8 hours with a concentration of 9 ng/ml.

proNGF/p75^NTR axis [3] = experiment: Voiding spot assay (VSA) in diabetic mice; assay type: in vivo, C57BL/6 female mice
Procedure: Voiding spot assay: For the voiding spot assay (VSA), mice were placed individually with access to food without water for 2 h. The cage was fitted with a chromatography paper, grade 3 mm CHR (Whatman, GE Healthcare, UK) covered by a fine metallic mesh (2-3 mm pore size). The urine spot pattern was assessed by imaging the chromatography paper with ultraviolet light using SynGene Bioimaging system (USA) connected to GeneSnap software (Version 7.02, USA) and analysed by ImageJ software (Version: 2.0.0-rc-66/1.52n, NIH, USA) using a calibration curve and Void Whizzard free software plugin for FIJI (distribution of ImageJ, Version: 2.0.0-rc-66/1.52n, NIH, USA). Mice were acquainted to the procedure once to get accustomed, then the experiment was done once to obtain the voiding data.
(§2) Animal housing and treatments All experiments received the ethical approval from the Lady Davis Institute Ethics Board (No. 7859), Montreal, Canada. Housing and handling conformed with the Canadian Council for Animal Care (CCAC). One hundred and forty four 9-week-old C57BL/6 female mice were kept on a 12 h light/dark cycle with free access to food (standard Purina chow, Teklad Global, Wl, USA) and water. Diabetes was induced by i.p. injection of streptozotocin (60 mg/kg in citrate buffer, 10 mmol/l, pH 4.5 on 5 consecutive days) after 4-5 h fasting. Fasting serum glucose (FSG) was checked after 5-7 days using a glucometer (Contour next EZ, Bayer, ON, Canada) from the tail. FSG above 14 mmol/l was considered diabetic. Mice were divided into four groups without pre-considering their weight changes or glucose levels (for diabetic groups): control (42 mice); untreated diabetic (hereafter referred to as Dm; 42 mice); anti-proNGF mAb-treated diabetic mice (30 mice); and small molecule p75^NTR antagonist (THX-B)-treated diabetic mice (30 mice). […] This inhibitor antagonises ligand-dependent p75^NTR functions and, different from other anti-NGF mAbs, it is free of the off-target side effects resulting from inhibiting TrkA. We have observed that the molecule is detectable in systemic circulation for 2 weeks. The THX-B small molecule ((1,3-diisopropyl-1-[2-(1,3-dimethyl-2,6-dioxo-1,2,3,6-tetrahydro-purin-7-yl)-acetyl]-urea); molecular mass […]) is a synthetic chemical with an estimated systemic circulation half-life in vivo of 6-8 h.
(§3) Without blinding, i.p. injections of the drug molecules or the vehicle (PBS) were given weekly for four weeks, starting after 2 weeks of diabetes confirmation. A single starting proNGF mAb i.p. injection of 100 µg/mouse in 150 µl PBS was followed by 60 µg/mouse in 100µl PBS for the following three injections. THX-B was injected i.p. at a weekly dose of 50 µg/mouse in 125 µl PBS. Experimental time points (to carry out cystometry, contractility, protein extraction and histology) were baseline (two weeks after diabetes diagnosis included control and Dm groups only), week 2 after treatment (following 2 injection cycles) and week 4 after treatment (following 4 injection cycles). Body weight was measured weekly and FSG fortnightly for all groups. Six mice from each group were kept for another 2 weeks after the end of the study duration to observe the washout/prolonged effect of the molecules.

B16F1-R2 cells = experiment: Lymph node lymphangiogenesis, LYVE-1 staining of inguinal LNs of animals with flank tumors (Figure 5); assay type: in vivo; conditions: 2.5 mg/Kg THX-B intra-peritoneally twice a week from day 7; sacrificed at 21 days
Procedure: (§4) • Figure 1. NGFR inhibition by THX-B reduces melanoma spontaneous metastasis. A-B) 200.000 lymph node metastatic mouse melanoma cells were subcutaneously in c57/BL6 mice. Animals were treated intra-peritoneally with THX-B (4 mg/Kg twice a week), starting on day 7 post-injection of tumor cells. Tumor volume (A) was measured twice a week using a caliper. LN and lung metastatic burden (B) were measured using the IVIS image system and represented as fold over vehicle treated mice. Error bars represent s.e.m. of 2 experiments (n = 8 mice, vehicle group and n = 10, THX-B group). C-D) Similarly, tumor growth (C) was measured in mice subcutaneously injected with lung metastatic mouse melanoma cells (200.000) and treated with vehicle or THX-B in the same conditions as A) (n=4-5mice per condition). D) Percentage of lung lobules with melanoma metastasis in animals with flank tumors originated by injecting B16F10 cells. p values were calculated by two-tailed Student's t test. • Figure 2. […] A) Tumor growth was measured with a caliper twice a week. B) Quantification of the percentage of lung lobules with melanoma metastasis was analyzed measuring Luc expression of tumor loci with the IVIS system. p values were calculated by two-tailed Student's t test. • Figure 3. […] A) Tumor volume was measured using a caliper. […] Distal metastases were analyzed measuring luciferase expression in the lungs using IVIS system. […]

[4] = system: Lung metastatic human melanoma cells; experiment: Spontaneous metastasis model in immunodeficient mice, human melanoma cells injected subcutaneously (Figure 2); assay type: in vivo, nude mice; conditions: immunodeficient models; THX-B 4 mg/Kg intraperitoneal twice a week from day 7; vs vehicle
Procedure: as §4

proNGF/p75^NTR axis [5] = experiment: Bladder weight and morphology in diabetic voiding dysfunction model; assay type: in vivo, C57BL/6 female mice
Procedure: as §2, §3

proNGF/p75^NTR axis [6] = experiment: Bladder contractility in diabetic voiding dysfunction model; assay type: in vivo, C57BL/6 female mice; conditions: compared with Dm, week as printed in the cell
Procedure: as §2
Without blinding, i.p. injections of the drug molecules or the vehicle (PBS) were given weekly for four weeks, starting after 2 weeks of diabetes confirmation. A single starting proNGF mAb i.p. injection of 100 µg/mouse in 150 µl PBS was followed by 60 µg/mouse in 100µl PBS for the following three injections. THX-B was injected i.p. at a weekly dose of 50 µg/mouse in 125 µl PBS. […] Body weight was measured weekly and FSG fortnightly for all groups. […]

mouse melanoma cells = experiment: Spontaneous metastasis model, mouse melanoma cells injected subcutaneously (Figure 1); assay type: in vivo, c57/BL6 mice
Procedure: • Figure 1. NGFR inhibition by THX-B reduces melanoma spontaneous metastasis. A-B) 200.000 lymph node metastatic mouse melanoma cells were subcutaneously in c57/BL6 mice. Animals were treated intra-peritoneally with THX-B (4 mg/Kg twice a week), starting on day 7 post-injection of tumor cells. Tumor volume (A) was measured twice a week using a caliper. LN and lung metastatic burden (B) were measured using the IVIS image system and represented as fold over vehicle treated mice. Error bars represent s.e.m. of 2 experiments (n = 8 mice, vehicle group and n = 10, THX-B group). C-D) Similarly, tumor growth (C) was measured in mice subcutaneously injected with lung metastatic mouse melanoma cells (200.000) and treated with vehicle or THX-B in the same conditions as A) (n=4-5mice per condition). D) Percentage of lung lobules with melanoma metastasis in animals with flank tumors originated by injecting B16F10 cells. p values were calculated by two-tailed Student's t test. • Figure 2. NGFR inhibition by THX-B reduces melanoma spontaneous metastasis in immunodeficient models. Lung metastatic human melanoma cells (500.000) were injected subcutaneously into the flank of nude mice. […] A) Tumor growth was measured with a caliper twice a week. B) Quantification of the percentage of lung lobules with melanoma metastasis was analyzed measuring Luc expression of tumor loci with the IVIS system. p values were calculated by two-tailed Student's t test. • Figure 3. […] A) Tumor volume was measured using a caliper. […] Distal metastases were analyzed measuring luciferase expression in the lungs using IVIS system. Error bars represent s.e.m of 3 experiment (n = 12 mice, vehicle group, n = 12, antiPD-L1 group; n=8 antiPDL1 and THX-B group). p values were calculated by two-tailed Student's t test. • Figure 4. […] Quantification of LYVE+ area was performed with ImageJ software and was normalized to total LN area in each section. Error bars represent s.e.m of 1 experiment (n = 6 LNs, 3 whole sections analyzed per nodule). p values were calculated by two-tailed Student's t test. • Figure 6. […]

proNGF/p75^NTR axis [7] = experiment: Fasting serum glucose and bladder weight/morphology after drug washout (Figure 7); assay type: in vivo, C57BL/6 female mice; conditions: after the 3 week washout period; compared with Dm
Procedure: as §4

proNGF/p75^NTR axis [8] = experiment: Cystometry in diabetic voiding dysfunction model; assay type: in vivo, C57BL/6 female mice; conditions: compared with Dm
Procedure: as §2, §3

TNF-a = experiment: Molecular changes in diabetic voiding dysfunction model: TNF-a; assay type: in vivo, C57BL/6 female mice; conditions: compared with Dm
Procedure: as §1, with “diabetic. Mice were divided into four groups without pre-considering their weight changes or glucose levels (for diabetic groups): control (42 mice); untreated diabetic (hereafter referred to as Dm; 42 mice); anti-proNGF mAb-treated diabetic mice (30 mice); and small molecule p75^NTR antagonist (THX-B)-treated diabetic mice (30 mice).” for “diabetic.”
(§5) Without blinding, i.p. injections of the drug molecules or the vehicle (PBS) were given weekly for four weeks, starting after 2 weeks of diabetes confirmation. […] Body weight was measured weekly and FSG fortnightly for all groups. […]

proNGF/NGF = experiment: Molecular changes in diabetic voiding dysfunction model: proNGF/NGF; assay type: in vivo, C57BL/6 female mice; conditions: compared with Dm
Procedure: as §1, with “diabetic. Mice were divided into four groups without pre-considering their weight changes or glucose levels (for diabetic groups): control (42 mice); untreated diabetic (hereafter referred to as Dm; 42 mice); anti-proNGF mAb-treated diabetic mice (30 mice); and small molecule p75^NTR antagonist (THX-B)-treated diabetic mice (30 mice).” for “diabetic.”
as §5

[9] = compared with Dm, week as printed in the cell
[10] = THX-B 4 mg/Kg intra-peritoneally twice a week from day 7, vs vehicle

## CC(C)NC(=O)N(C(=O)Cn1cnc2c1c(=O)n(C)c(=O)n2C)C(C)C [THX-B, 1,3-diisopropyl-1-[2-(1,3-dimethyl-2,6-dioxo-1,2,3,6-tetrahydro-purin-7-yl)-acetyl]-urea]
[1]
  half-life: 360 to 480 min
[2]; females, 20 hours after injection 4mg/Kg
  organ distribution: lymph nodes: can be detected
[2]; intraperitoneal injection 4mg/Kg, males and female mice, said to suggest a short half-life
  detection levels: dropped 1 hour after injection
[2]; mouse, lymph nodes, oral dose 50mg/Kg, 8 hours
  concentration at 8 h: 9 ng/mL
[2]; mouse, tissues except lymph nodes, oral dose 50mg/Kg, 24h, read-out: tissue distribution: concentration in all the tissues except the lymph nodes
  concentration at 24 h: 12 to 20 ng/mL
[2]; oral gavage 10mg/Kg, compared with intraperitoneal injection
  half-life: similar
[2]; oral gavage 50mg/Kg
  half-life: sustained over time
proNGF/p75^NTR axis [3]; after 2 weeks of treatment
  lower total voided volume compared with Dm: 50%
proNGF/p75^NTR axis [3]; after 2 weeks of treatment, 2 h VSA, Dm 802.5±123µl
  total voided volume: 372 ± 73 µL
proNGF/p75^NTR axis [3]; compared with Dm
  VSA: Volume per spot: ⇔
proNGF/p75^NTR axis [3]; compared with Dm, except total voided volume for THX-B at 2 weeks
  effects on voiding frequency, total voided volume and mean volume per micturition: minimal effects
proNGF/p75^NTR axis [3]; [9]
  VSA: Number of spots: ↓ (week 2)
  VSA: Total volume: ↓ (week 2)
B16F1-R2 cells
  lymph node lymphangiogenesis (Lyve-1+ staining in inguinal lymph nodes): reduces; also recorded: decreased
[4]
  lung spontaneous metastasis: reduce
proNGF/p75^NTR axis [5]; compared with Dm
  Morphology: Collagen content: ↓
  Morphology: Detrusor: ↓
  Morphology: Mucosa: ↓
  Morphology: Overall thickness: ↓
proNGF/p75^NTR axis [5]; compared with Dm, week of treatment as printed in the cell
  Bladder weight: ↓ (week 2,4)
proNGF/p75^NTR axis [5]; following THX-B treatment, in spite of continuous hyperglycemia
  morphology of the bladder: improved
proNGF/p75^NTR axis [6]; Electric field stimulation
  Contractility: EFS: ↑ (week 2,4)
proNGF/p75^NTR axis [6]
  Contractility: Carbachol: ↑ (week 2,4)
  Contractility: KCI: ↑ (week 2,4)
Mouse melanoma cells; Figure 1 title, THX-B 4 mg/Kg intra-peritoneally twice a week
  melanoma spontaneous metastasis: reduces
Mouse melanoma cells; [10]
  distal (lung) spontaneous metastasis: impaired
  local (lymph node) spontaneous metastasis: impaired
proNGF/p75^NTR axis [7]
  Bladder weight: persistent absence of bladder hypertrophy; also recorded: maintained a significant difference
proNGF/p75^NTR axis [8]
  Cystometry: Spontaneous activity: ⇔
proNGF/p75^NTR axis [8]; week as printed in the cell
  Cystometry: Bladder capacity: ↓ (week 4)
  Cystometry: Bladder compliance: ⇔
proNGF/p75^NTR axis [8]; inter-contraction interval, week as printed in the cell
  Cystometry: ICI: ↓ (week 4)
TNF-a
  Molecular changes: TNF-a: ↓↓
proNGF/NGF
  Molecular changes: proNGF/NGF: ↓
